# From US20140128357A1, “METHODS OF PRODUCING AND USING BRASSINOSTEROIDS TO PROMOTE GROWTH, REPAIR AND MAINTENANCE OF SKELETAL MUSCLE AND SKIN” (Rutgers University, priority 2010, published 2014)
# What was measured:
# [1] = tested on: collagen and elastin in skin; test: Collagen and elastin in skin of rats given oral HB (Example 16); assay type: in vivo, rat; settings: 20 and 60 mg/kg oral daily 24 d, written in present tense
# Description: To evaluate the potential anabolic effects of plant brassinosteroids on the skin of animals, 20 and 60 mg/kg body weight of HB (HB20 and HB60, respectively) are orally administered daily to healthy rats fed normal diet for 24 d.
# Collagen and elastin production are measured in the skin of animals treated with HB versus their control counterparts. Protein degradation of collagen and elastin is measured in the skin of animals treated with HB versus their control counterparts, e.g., by collagen or elastin ELISAs. The amount of collagen and elastin protein present in the skin of animals treated with HB is measured versus their control counterparts.
# [2] = tested on: TNF-α, TGF-β and ICAM-1 mRNA in wounds; test: Cytokine and chemokine mRNA in wound tissue, qPCR; assay type: in vivo; settings: day 10 post-wounding, 10 μg/mouse topically
# Description: Cutaneous would healing is characterized by an initial inflammatory response. To evaluate the effect of brassinosteroids on inflammation in wound healing, mRNA levels of proinflammatory cytokines TNF-α and TGF-β and an adhesion chemokine ICAM-1 were measured in the wound tissue of control and treated mice on day 10 post-wounding and treatment with HB, positive control (CGS-21680), or negative control (vehicle).
# Total RNA was extracted from fibroblasts using Trizol (Invitrogen, Carlsbad, Calif.). RNA was quantified spectrophotometrically by absorbance measurements at 260 and 280 nm using the NanoDrop reader (NanoDrop Technologies, Wilmington, Del.). Quality of RNA was assessed by gel electrophoresis. RNA was then treated with DnaseI (Invitrogen, Carlsbad, Calif.) to remove traces of DNA contamination and the cDNAs were synthesized with 2.5 μg of RNA using Stratascript reverse transcriptase (Stratagene, Santa Clara, Calif.) according to the manufacturers' protocols. Quantitative PCR was performed in duplicate essentially as described previously (Komarnytsky et al., Int. J. Obes. 35: 236-43, 2011) using the following gene-specific primers (IDT, Coralville, Iowa) selected using the Primer Express 2.0 software (Applied Biosystems, Foster City, Calif.): β-actin, forward primer 5′-GGGAAATCGTGCGTGACATT-3′ (SEQ ID NO: 5), and reverse primer 5′-GCG GCA GTG GCC ATC TC-3′ (SEQ ID NO: 6). Target gene expression of the housekeeping gene β-actin was assigned a value of 1. Samples were subjected to a melting curve analysis to confirm the amplification specificity. The relative change in the […] with respect to the endogenous control gene was determined using 2ΔΔCT method (Winer et al., Anal. Biochem. 270: 41-9, 1999).
# [3] = tested on: gastrocnemius muscle mRNA (insulin signaling pathway, myogenic transcription factors); test: Gene expression in gastrocnemius muscle, insulin signaling PCR array and RT-PCR; assay type: in vivo, rat; settings: 60 mg/kg oral 24 d
# Description: The body weight of each animal and the total amount of food consumed (accounted for spillage) were recorded every 2 d for the duration of the experiment. At the end of the experiment, blood was collected by heart puncture after CO2 inhalation and animal body composition was assessed by DEXA dual-energy X-ray absorptiometry analysis using a Lunar Prodigy Densitometer (GE Healthcare, Waukesha, Wis.). At necropsy, tissue weights were recorded. Tissue samples were collected by snap-freezing in liquid nitrogen and stored at −80° C. for further studies. Total RNA was isolated using Trizol, its quantity and purity were determined using a NanoDrop (Nanodrop Technologies, Wilmington, Del.).
# Pooled RNA samples obtained from frozen skeletal muscle (gastrocnemius muscle biopsies of vehicle- (Ctr) and HB-treated animals) were used in a rat insulin signaling PCR array to measure mRNA response to HB. […] However, the magnitude of the differences varied (FIG. 11A).
# [4] = tested on: fully differentiated L6 rat skeletal myotubes; test: MTT cell viability in L6 myotubes; assay type: cell-based; settings: up to 25 μM
# Description: In various aspects, cell viability is measured and the effects of doses of compound and test reagents are tested in cell lines. In some aspects, cell viability was measured by the MTT (3-(4,5-Dimethylthiazol-2-yl)-2,5-diphenyltetrazolium bromide) assay in triplicate (Mosmann et al., J. Immunol. Methods 65:55-63, 1983) and quantified spectrophotometrically at 550 nm using a microplate reader (Molecular Devices, Sunnyvale, Calif.).
# [5] = target: T1, rat nuclear androgen receptor (Rattus norvegicus, UniProt P15207); test: Rat androgen receptor binding, [3H]-mibolerone displacement; settings: 0.01 μM up to 10 μM
# T1 construct: MDS Pharma Services (Taiwan), the contract laboratory that ran the assay
# T1 sequence (P15207 1-902): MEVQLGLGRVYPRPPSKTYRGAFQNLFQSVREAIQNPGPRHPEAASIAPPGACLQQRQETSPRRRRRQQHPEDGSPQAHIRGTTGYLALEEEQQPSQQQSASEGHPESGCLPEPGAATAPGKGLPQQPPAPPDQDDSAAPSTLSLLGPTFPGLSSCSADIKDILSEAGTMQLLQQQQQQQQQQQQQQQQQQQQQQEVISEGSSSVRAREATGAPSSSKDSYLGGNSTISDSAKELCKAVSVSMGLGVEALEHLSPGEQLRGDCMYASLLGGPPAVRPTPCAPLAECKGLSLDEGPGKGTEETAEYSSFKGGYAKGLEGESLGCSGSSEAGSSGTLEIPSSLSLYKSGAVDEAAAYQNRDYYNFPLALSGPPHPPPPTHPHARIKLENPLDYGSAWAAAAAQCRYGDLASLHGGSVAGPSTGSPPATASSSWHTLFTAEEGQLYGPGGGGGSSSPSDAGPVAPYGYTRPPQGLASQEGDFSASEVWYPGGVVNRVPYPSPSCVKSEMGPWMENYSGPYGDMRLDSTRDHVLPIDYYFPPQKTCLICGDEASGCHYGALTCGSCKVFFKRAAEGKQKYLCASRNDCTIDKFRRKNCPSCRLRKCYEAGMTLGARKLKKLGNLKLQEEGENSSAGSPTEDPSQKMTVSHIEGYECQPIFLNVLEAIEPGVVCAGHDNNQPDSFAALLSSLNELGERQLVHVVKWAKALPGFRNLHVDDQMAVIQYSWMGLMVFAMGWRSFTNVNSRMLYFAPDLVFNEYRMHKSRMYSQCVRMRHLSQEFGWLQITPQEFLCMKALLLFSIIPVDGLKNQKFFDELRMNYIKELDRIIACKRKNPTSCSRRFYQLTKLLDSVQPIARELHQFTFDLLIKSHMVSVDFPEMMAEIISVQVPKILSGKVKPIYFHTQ
# Description: Rat androgen receptor binding assays were performed by MDS Pharma Services (Taiwan) as described elsewhere (Chang et al., J. Steroid Biochem. 27:123-131, 1987), incorporated herein by reference.
# [6] = pooled gastrocnemius RNA, PCR array
smiles,measurement,setting,value
"CC[C@@H](C(C)C)[C@H](O)[C@@H](O)[C@@H](C)[C@H]1CC[C@H]2[C@@H]3COC(=O)[C@H]4C[C@H](O)[C@H](O)C[C@]4(C)[C@H]3CC[C@]12C [Compound 1, (22S,23S,24S)-2α,3α,22,23-tetrahydroxy-24 ethyl-β-homo-7-oxo-5α-cholestane-6-one]",collagen and elastin production in skin,[1],increases collagen and elastin production in skin
same,ICAM-1 mRNA in wound tissue,[2],significant suppression
same,TGF-β mRNA in wound tissue,[2],weak effect on the downregulation
same,TNF-α mRNA in wound tissue,[2],nearly complete downregulation
same,expression of EIF2B1,[3],No changes
same,MYF5 mRNA upregulation,[3]; RT-PCR (FIG. 11C),1.3 fold
same,MYF6 mRNA upregulation,[3]; RT-PCR (FIG. 11C),1.3 fold
same,MYOD1 mRNA upregulation,[3]; RT-PCR (FIG. 11C),2.1 fold
same,MYOG (myogenin) mRNA upregulation,[3]; RT-PCR (FIG. 11C),1.7 fold
same,ADRA1D mRNA upregulation,[3]; [6],6.5 fold
same,FBP2 mRNA upregulation,[3]; [6],4.5 fold
same,IGF-2 mRNA upregulation,[3]; [6],1.4 fold
same,IGFBP1 mRNA upregulation,[3]; [6],2.5 fold
same,SREBP-1 mRNA upregulation,[3]; [6],2.5 fold
same,toxicity to L6 myotubes (MTT assay and cytological observations),[4],no toxicity
same,binding to androgen receptor,[5],no significant binding
